According to ChEMBL document CHEMBL3994638, “The juxtamembrane region of TrkA kinase is critical for inhibitor selectivity” (Bioorg Med Chem Lett, 2017):

Key:
[1] = biological target: BDNF/NT-3 growth factors receptor (Homo sapiens, UniProt Q16620); test: Inhibition of recombinant human TrkB expressed in DHFR deficient CHO cells assessed as inhibition of human brain-derived neurotrophic factor-induced calcium influx by Fluo-4 AM dye based assay; type: cell-based
[2] = biological target: T1, High affinity nerve growth factor receptor (Homo sapiens, UniProt P04629); test: Inhibition of juxtamembrane region containing recombinant human N-terminal His6-tagged/GST-tagged TrkA (473 to 796 residues) expressed in baculovirus infected Hi5 cells using TK substrate after 60 mins by HTRF assay
[3] = biological target: T1, High affinity nerve growth factor receptor; test: Inhibition of juxtamembrane region deficient recombinant human N-terminal His6-tagged/GST-tagged TrkA (498 to 796 residues) expressed in baculovirus infected Hi5 cells using TK substrate after 60 mins by HTRF assay
[4] = biological target: T1, High affinity nerve growth factor receptor; test: Inhibition of recombinant human TrkA expressed in DHFR deficient CHO cells assessed as inhibition of human beta-nerve growth factor-induced calcium influx by Fluo-4 AM dye based assay; type: cell-based
[5] = biological target: NT-3 growth factor receptor (Homo sapiens, UniProt Q16288); test: Inhibition of recombinant human TrkC expressed in DHFR deficient CHO cells assessed as inhibition of human neurotrophin-3-induced calcium influx by Fluo-4 AM dye based assay; type: cell-based
Chain of NT-3 growth factor receptor (Q16288 whole entry): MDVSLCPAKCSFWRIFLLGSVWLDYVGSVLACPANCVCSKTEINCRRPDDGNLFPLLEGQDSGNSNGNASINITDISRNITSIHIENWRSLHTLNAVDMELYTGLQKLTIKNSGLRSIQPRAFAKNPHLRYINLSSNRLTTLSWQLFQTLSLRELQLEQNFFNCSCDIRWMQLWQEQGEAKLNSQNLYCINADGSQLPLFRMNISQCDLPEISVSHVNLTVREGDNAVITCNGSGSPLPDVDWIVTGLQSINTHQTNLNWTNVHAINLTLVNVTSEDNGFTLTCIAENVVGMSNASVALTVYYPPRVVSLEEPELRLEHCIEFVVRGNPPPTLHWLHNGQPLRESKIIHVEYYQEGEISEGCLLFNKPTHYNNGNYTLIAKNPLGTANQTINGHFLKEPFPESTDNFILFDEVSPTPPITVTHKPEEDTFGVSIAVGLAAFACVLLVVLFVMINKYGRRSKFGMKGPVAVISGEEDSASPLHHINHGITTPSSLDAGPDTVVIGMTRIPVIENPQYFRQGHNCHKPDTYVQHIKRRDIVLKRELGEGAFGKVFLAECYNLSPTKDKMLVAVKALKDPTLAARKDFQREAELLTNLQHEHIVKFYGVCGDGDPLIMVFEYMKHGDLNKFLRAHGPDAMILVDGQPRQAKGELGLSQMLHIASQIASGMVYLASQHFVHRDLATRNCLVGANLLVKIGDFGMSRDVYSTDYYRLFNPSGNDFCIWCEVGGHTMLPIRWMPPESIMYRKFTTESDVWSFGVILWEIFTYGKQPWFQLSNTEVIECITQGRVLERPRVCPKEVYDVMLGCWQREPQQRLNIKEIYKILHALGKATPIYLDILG

Chain of BDNF/NT-3 growth factors receptor (Q16620 whole entry, the tested form may be a part): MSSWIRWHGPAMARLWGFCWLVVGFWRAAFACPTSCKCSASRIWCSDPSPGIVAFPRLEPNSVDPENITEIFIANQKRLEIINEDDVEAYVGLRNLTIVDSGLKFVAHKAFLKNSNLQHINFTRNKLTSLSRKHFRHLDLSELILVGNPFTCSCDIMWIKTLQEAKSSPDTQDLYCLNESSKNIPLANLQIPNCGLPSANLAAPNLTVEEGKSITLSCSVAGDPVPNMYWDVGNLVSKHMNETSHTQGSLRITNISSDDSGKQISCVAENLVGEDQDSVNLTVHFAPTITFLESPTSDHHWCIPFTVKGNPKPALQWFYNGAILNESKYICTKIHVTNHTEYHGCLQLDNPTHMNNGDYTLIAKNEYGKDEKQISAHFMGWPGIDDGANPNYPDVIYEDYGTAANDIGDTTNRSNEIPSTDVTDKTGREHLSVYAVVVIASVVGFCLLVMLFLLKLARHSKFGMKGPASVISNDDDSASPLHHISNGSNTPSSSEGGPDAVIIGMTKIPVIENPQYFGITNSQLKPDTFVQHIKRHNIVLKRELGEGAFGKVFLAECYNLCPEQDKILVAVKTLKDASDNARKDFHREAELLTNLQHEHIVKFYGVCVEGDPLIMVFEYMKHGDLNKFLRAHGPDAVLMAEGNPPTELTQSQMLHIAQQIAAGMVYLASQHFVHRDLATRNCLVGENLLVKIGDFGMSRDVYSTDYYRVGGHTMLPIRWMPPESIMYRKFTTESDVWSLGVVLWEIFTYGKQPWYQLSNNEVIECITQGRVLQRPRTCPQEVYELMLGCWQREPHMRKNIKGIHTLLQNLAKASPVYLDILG
T1 sequence (P04629 whole entry, the tested form may be a part): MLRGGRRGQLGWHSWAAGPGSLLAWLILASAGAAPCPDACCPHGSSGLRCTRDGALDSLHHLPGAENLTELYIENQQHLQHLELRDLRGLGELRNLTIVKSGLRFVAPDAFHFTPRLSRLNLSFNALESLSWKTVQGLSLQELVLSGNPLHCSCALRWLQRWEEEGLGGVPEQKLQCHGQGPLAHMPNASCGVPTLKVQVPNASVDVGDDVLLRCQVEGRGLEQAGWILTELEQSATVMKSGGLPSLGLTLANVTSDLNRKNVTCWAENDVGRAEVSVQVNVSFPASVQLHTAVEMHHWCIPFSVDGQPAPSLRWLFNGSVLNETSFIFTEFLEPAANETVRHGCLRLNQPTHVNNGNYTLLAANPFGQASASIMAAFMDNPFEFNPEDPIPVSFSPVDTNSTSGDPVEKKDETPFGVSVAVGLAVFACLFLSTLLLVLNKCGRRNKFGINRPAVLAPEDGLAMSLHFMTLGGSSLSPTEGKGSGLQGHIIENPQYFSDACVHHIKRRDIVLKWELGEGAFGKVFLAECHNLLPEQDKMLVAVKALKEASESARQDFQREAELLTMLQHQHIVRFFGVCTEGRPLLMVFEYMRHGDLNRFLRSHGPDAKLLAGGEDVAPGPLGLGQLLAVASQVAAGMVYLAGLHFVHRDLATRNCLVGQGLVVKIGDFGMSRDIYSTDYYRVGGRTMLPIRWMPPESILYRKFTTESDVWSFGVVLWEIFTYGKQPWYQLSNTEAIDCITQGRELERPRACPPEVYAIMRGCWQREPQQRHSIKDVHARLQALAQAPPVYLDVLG

Row | IC50 [1] [nM] | IC50 [2] [nM] | IC50 [3] [nM] | IC50 [4] [nM] | IC50 [5] [nM] | Structure (SMILES)
1 | 132 | – | – | – | – | COc1cc(-c2cn(CC(=O)Nc3cc(C4CC4)nn3-c3ccccc3)nn2)ccc1-n1cnc(C)c1
2 | 1300 | 6 | 37200 | 2.7 | 2480 | CCOc1nn(-c2ccccc2)c(NC(=O)N[C@@H]2CN(CCOC)C[C@H]2c2ccc(F)c(F)c2)c1C
3 | 6.8 | – | – | – | 7.2 | CC(C)Oc1cc(Nc2nc(N[C@@H](C)c3ccc(F)cn3)ncc2Cl)n[nH]1
